Experimental data as given in PubChem BioAssay AID850 (SRMLSC, 2007).
The source made the active and inactive calls. How the calls were made is not given here.

How the values were obtained:
[1] = tested on: Saccharomyces cerevisiae growth inhibition, permissive control; assay: yeast lifespan-shortening chemical project counter-assay, dose-response inhibition of growth under permissive conditions (AID 850);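 further: growth read as optical density after one day of incubation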
[2] = as above; conditions: Saccharomyces cerevisiae growth inhibition, permissive control, measured here: maximum growth inhibition, stronger effect = higher value

## c1ccc(N(c2ccccc2)c2nc(-n3ccnc3)nc(-n3ccnc3)n2)cc1
[1]
  IC50: 37.6 µM
[2]; at 50 µM
  inhibition: 62.1%

## Cc1nn(-c2ccc(F)cc2)c2sc(C(=O)O)cc12
[1]
  IC50: 49.1 µM
[2]; at 50 µM
  inhibition: 60.6%

## O=C(Oc1csc(=S)n1C(=O)c1ccccc1)c1ccccc1
[1]
  IC50: > 100 µM (inactive)
[2]; at 12.5 µM
  inhibition: 11.4%

## CC(C)(C)c1ccc(C(=O)NC(=S)NNC(=O)c2cccs2)cc1
[1]
  IC50: 41.7 µM
[2]; at 50 µM
  inhibition: 53.8%

## COc1ccc2nc(/N=C(\N)NC(=O)Nc3ccccc3)nc(C)c2c1
[1]
  IC50: 33.8 µM
[2]; at 50 µM
  inhibition: 73.7%

## CCc1cc2c(=O)[nH]c(-c3ccccn3)nc2s1
[1]
  IC50: 23.6 µM
[2]; at 50 µM
  inhibition: 86.2%

## O=C(/C(=N/N=C/c1ccc(O)c(O)c1O)c1ccccc1)c1ccccc1
[1]
  IC50: > 100 µM (inactive)
[2]; at 0.781 µM
  inhibition: 5.74%

## CC1(C)Cc2c(C#N)c(N)sc(=S)c2CO1
[1]
  IC50: > 100 µM (inactive)
[2]; at 12.5 µM
  inhibition: 23.1%

## N#Cc1ccccc1NC(=O)c1ccc2c(Cl)c3c(nc2c1)CCCC3
[1]
  IC50: > 100 µM (inactive)
[2]; at 3.125 µM
  inhibition: 13.6%

## CC1=C(C)CC2C(=O)N(c3cccc4ccccc34)C(=O)C2C1 (configuration not stated)
[1]
  IC50: > 100 µM (inactive)
[2]; at 50 µM
  inhibition: 8.57%

## Cc1c(C(=O)O)cccc1-c1ccc(/C=N/Nc2ccc(Br)cc2)o1
[1]
  IC50: 13.1 µM
[2]; at 50 µM
  inhibition: 95.6%

## COc1ccc2c(c1)c1nnc(SC)nc1n2C
[1]
  IC50: 48.3 µM
[2]; at 50 µM
  inhibition: 63.9%

## COc1cc(OC)c(C2CC(=O)N3CN(C)CSC3=C2C#N)cc1OC (configuration not stated)
[1]
  IC50: > 100 µM (inactive)
[2]; at 0.781 µM
  inhibition: 11%

## Oc1c(C(Nc2nc3ccccc3s2)c2ccco2)ccc2cccnc12 (configuration not stated)
[1]
  IC50: > 100 µM (inactive)
[2]; at 50 µM
  inhibition: 23.2%

## CCCc1ccc(OCC(=O)NNC(=S)NC(=O)c2ccco2)cc1
[1]
  IC50: 10.6 µM
[2]; at 50 µM
  inhibition: 98.8%

## Nc1nonc1C(=O)NCCN=Cc1cc(Cc2ccccc2)cc(Br)c1O
[1]
  IC50: > 100 µM (inactive)
[2]; at 50 µM
  inhibition: 22.4%

## OCc1ccnc2c(O)cccc12
[1]
  IC50: 50.6 µM
[2]; at 50 µM
  inhibition: 44.1%

## CN1C(=O)/C(=N/OC(=O)c2ccccc2)c2ccccc21
[1]
  IC50: 46.3 µM
[2]; at 50 µM
  inhibition: 90.8%

## COc1ccc(NCc2nc3ccccc3n2CCOc2ccc(C)cc2)cc1
[1]
  IC50: 42.2 µM
[2]; at 50 µM
  inhibition: 52.7%

## C=CCC1c2cccc(C(=O)O)c2C(=O)N1c1cccc(C)c1 (configuration not stated)
[1]
  IC50: 49.7 µM
[2]; at 25 µM
  inhibition: 44.4%

## Oc1ccc2ccccc2c1N=Nc1ccccn1
[1]
  IC50: 25 µM
[2]; at 50 µM
  inhibition: 97.5%

## NC(N)=N/N=C/c1ccc(OCc2ccc(Cl)cc2)cc1
[1]
  IC50: 34.6 µM
[2]; at 50 µM
  inhibition: 81.6%

## Cc1nc(N/N=C/c2ccccn2)sc1C
[1]
  IC50: 25.8 µM
[2]; at 50 µM
  inhibition: 99.8%

## Cc1cc(C)cc(N=Cc2ccc([N+](=O)[O-])s2)c1
[1]
  IC50: 12.3 µM
[2]; at 50 µM
  inhibition: 100%

## COc1ccc(CCNC(=O)c2cnn3c(C(F)F)cc(C)nc23)cc1OC
[1]
  IC50: > 100 µM (inactive)
[2]; at 3.125 µM
  inhibition: -1.3%

## Cc1cc(O)c(/C=N/Nc2ccccc2Cl)c(=O)o1
[1]
  IC50: 22.3 µM
[2]; at 50 µM
  inhibition: 95.1%

## CCn1c2ccccc2c2cc(Nc3cc(C)nc4ncnn34)ccc21
[1]
  IC50: > 100 µM (inactive)
[2]; at 6.25 µM
  inhibition: 14.4%

## O=C(Oc1c(Cl)cc(Cl)c2cccnc12)c1cccc([N+](=O)[O-])c1
[1]
  IC50: 1.44 µM
[2]; at 12.5 µM
  inhibition: 99.4%

## O=C(Oc1c(Cl)cc(Cl)c2cccnc12)c1cccs1
[1]
  IC50: 12.7 µM
[2]
  inhibition: 100%

## Cc1cc(C)nc(/N=c2/ssnc2Cl)c1
[1]
  IC50: > 100 µM (inactive)
[2]; at 6.25 µM
  inhibition: 29.2%

## CC(C)C(=O)NC(c1ccccc1)c1cc([N+](=O)[O-])c2cccnc2c1O (configuration not stated)
[1]
  IC50: 29.6 µM
[2]; at 50 µM
  inhibition: 93.4%

## CCc1cccc(C)c1NC(=S)NCCc1c(C)[nH]c2ccc(C)cc12
[1]
  IC50: > 100 µM (inactive)
[2]; at 50 µM
  inhibition: 8.58%

## O=[N+]([O-])c1ccc(N/N=C2/CCCCC2c2ccccn2)cc1 (configuration not stated)
[1]
  IC50: 1.94 µM
[2]; at 50 µM
  inhibition: 98.4%

## Cc1ccc(C(=O)CSC2=NC(N)=C(C#N)C3(CCCCC3)C2C(N)=O)cc1 (configuration not stated)
[1]
  IC50: > 100 µM (inactive)
[2]; at 1.563 µM
  inhibition: 18.2%

## COc1ccc(-c2n[nH]c(C(F)(F)F)c2-c2cc3ccccc3o2)c(O)c1
[1]
  IC50: 36.6 µM
[2]; at 50 µM
  inhibition: 53.6%

## CC(C)c1ccc(NC(=S)NCCc2c[nH]c3ccccc23)cc1
[1]
  IC50: > 100 µM (inactive)
[2]; at 3.125 µM
  inhibition: 20.3%

## C/C(O)=c1/ccc2cccc3nc(C)nc1c23
[1]
  IC50: > 100 µM (inactive)
[2]; at 25 µM
  inhibition: 24.2%

## CCOC(=O)C(=NC(C)CC)NNc1ccc(Br)cc1 (configuration not stated)
[1]
  IC50: 4.03 µM
[2]; at 50 µM
  inhibition: 97.4%

## CC/C(C)=N/Nc1cccc([N+](=O)[O-])c1
[1]
  IC50: 4.11 µM
[2]; at 50 µM
  inhibition: 98.4%

## Oc1c(CN2CCN(c3ccccn3)CC2)cc(Cl)c2cccnc12
[1]
  IC50: 26.5 µM
[2]; at 50 µM
  inhibition: 95.9%

## O=C(O)c1ccc2nc(-c3ccccc3)sc2c1
[1]
  IC50: > 100 µM (inactive)
[2]; at 0.781 µM
  inhibition: 28.2%
